Experimental data from ChEMBL document CHEMBL1201862, “PubChem BioAssay data set” (2004).
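1) Cells in 96-well plates. 2) Compound, 48 h, 5 concentrations. 3) Linear interpolation between surrounding doses. 4) Unreached endpoint = highest concentration. GI50 is the concentration that inhibits growth by half.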 Calls of active or inactive are those of the source. Cut-off read from the data, not from the text of the source: active = GI50 up to about 1.1 µM and inactive = higher.

Assays:
Assay in all cases: NCI-60 cell line screen, 48 h
[1] = tested on: IGROV-1
[2] = tested on: KM12
[3] = tested on: UACC-62
[4] = tested on: OVCAR-8
[5] = tested on: NCI-H522
[6] = tested on: HOP-92
[7] = tested on: KM-20L2
[8] = tested on: LXFL 529
[9] = tested on: LOX IMVI
[10] = tested on: K562
[11] = tested on: TK-10
[12] = tested on: SR
[13] = tested on: CAKI-1
[14] = tested on: HCT-116
[15] = tested on: M14
[16] = tested on: OVCAR-3
[17] = tested on: NCI-H460
[18] = tested on: SW-620
[19] = tested on: SK-MEL-28
[20] = tested on: CCRF-CEM
[21] = tested on: SF-295
[22] = tested on: SK-MEL-2
[23] = tested on: SK-MEL-5
[24] = tested on: ACHN
[25] = tested on: EKVX
[26] = tested on: Malme-3M
[27] = tested on: A549
[28] = tested on: MOLT-4
[29] = tested on: UO-31
[30] = tested on: A498
[31] = tested on: SF-539
[32] = tested on: OVCAR-4
[33] = tested on: DLD-1
[34] = tested on: 786-0
[35] = tested on: HT-29
[36] = tested on: SN12C
[37] = tested on: SK-OV-3
[38] = tested on: HOP-62
[39] = tested on: SF-268
[40] = tested on: M19-MEL
[41] = tested on: HOP-18
[42] = tested on: SNB-75
[43] = tested on: UACC-257
[44] = tested on: HCC 2998
[45] = tested on: HL-60
[46] = tested on: NCI-H23
[47] = tested on: DMS-114
[48] = tested on: SNB-19
[49] = tested on: DMS-273
[50] = tested on: SNB-78
[51] = tested on: COLO 205
[52] = tested on: U-251
[53] = tested on: OVCAR-5
[54] = tested on: HCT-15
[55] = tested on: RPMI-8226
[56] = tested on: XF498
[57] = tested on: NCI-H226

## O=C1NC2OC(CO)C(O)C(O)C2O1 (centres undefined)
[1]
  GI50: > 100 µM (inactive)
[2]
  GI50: > 100 µM (inactive)
[3]
  GI50: > 100 µM (inactive)
[4]
  GI50: > 100 µM (inactive)
[5]
  GI50: > 100 µM (inactive)
[6]
  GI50: > 100 µM (inactive)
[7]
  GI50: > 100 µM (inactive)
[8]
  GI50: > 100 µM (inactive)
[9]
  GI50: > 100 µM (inactive)
[10]
  GI50: > 100 µM (inactive)
[11]
  GI50: > 100 µM (inactive)
[12]
  GI50: > 100 µM (inactive)
[13]
  GI50: > 100 µM (inactive)
[14]
  GI50: > 100 µM (inactive)
[15]
  GI50: > 100 µM (inactive)
[16]
  GI50: > 100 µM (inactive)
[17]
  GI50: > 100 µM (inactive)
[18]
  GI50: > 100 µM (inactive)
[19]
  GI50: > 100 µM (inactive)
[20]
  GI50: > 100 µM (inactive)
[21]
  GI50: > 100 µM (inactive)
[22]
  GI50: > 100 µM (inactive)
[23]
  GI50: > 100 µM (inactive)
[24]
  GI50: > 100 µM (inactive)
[25]
  GI50: > 100 µM (inactive)
[26]
  GI50: > 100 µM (inactive)
[27]
  GI50: > 100 µM (inactive)
[28]
  GI50: > 100 µM (inactive)
[29]
  GI50: > 100 µM (inactive)
[30]
  GI50: > 100 µM (inactive)
[31]
  GI50: > 100 µM (inactive)
[32]
  GI50: > 100 µM (inactive)
[33]
  GI50: > 100 µM (inactive)
[34]
  GI50: > 100 µM (inactive)
[35]
  GI50: > 100 µM (inactive)
[36]
  GI50: > 100 µM (inactive)
[37]
  GI50: > 100 µM (inactive)
[38]
  GI50: > 100 µM (inactive)
[39]
  GI50: > 100 µM (inactive)
[40]
  GI50: > 100 µM (inactive)
[41]
  GI50: > 100 µM (inactive)
[42]
  GI50: > 100 µM (inactive)
[43]
  GI50: > 100 µM (inactive)
[44]
  GI50: > 100 µM (inactive)
[45]
  GI50: > 100 µM (inactive)
[46]
  GI50: > 100 µM (inactive)
[47]
  GI50: > 100 µM (inactive)
[48]
  GI50: > 100 µM (inactive)
[49]
  GI50: > 100 µM (inactive)
[50]
  GI50: > 100 µM (inactive)
[51]
  GI50: > 100 µM (inactive)
[52]
  GI50: > 100 µM (inactive)
[53]
  GI50: > 100 µM (inactive)
[54]
  GI50: > 100 µM

## CCCOC(=O)C1CCC(=O)N1C(=O)C(Cl)Cl (centres undefined)
[1]
  GI50: > 100 µM (inactive)
[2]
  GI50: > 100 µM (inactive)
[3]
  GI50: > 100 µM (inactive)
[4]
  GI50: > 100 µM (inactive)
[5]
  GI50: > 100 µM (inactive)
[6]
  GI50: > 100 µM (inactive)
[7]
  GI50: > 100 µM (inactive)
[8]
  GI50: > 100 µM (inactive)
[9]
  GI50: > 100 µM (inactive)
[10]
  GI50: > 100 µM (inactive)
[11]
  GI50: > 100 µM (inactive)
[13]
  GI50: > 100 µM (inactive)
[14]
  GI50: > 100 µM (inactive)
[15]
  GI50: > 100 µM (inactive)
[16]
  GI50: > 100 µM (inactive)
[17]
  GI50: > 100 µM (inactive)
[18]
  GI50: > 100 µM (inactive)
[19]
  GI50: > 100 µM (inactive)
[20]
  GI50: > 100 µM (inactive)
[21]
  GI50: > 100 µM (inactive)
[22]
  GI50: > 100 µM (inactive)
[23]
  GI50: > 100 µM (inactive)
[24]
  GI50: > 100 µM (inactive)
[55]
  GI50: > 100 µM (inactive)
[25]
  GI50: > 100 µM (inactive)
[26]
  GI50: > 100 µM (inactive)
[27]
  GI50: > 100 µM (inactive)
[28]
  GI50: > 100 µM (inactive)
[29]
  GI50: > 100 µM (inactive)
[30]
  GI50: > 100 µM (inactive)
[32]
  GI50: > 100 µM (inactive)
[33]
  GI50: > 100 µM (inactive)
[34]
  GI50: > 100 µM (inactive)
[35]
  GI50: > 100 µM (inactive)
[36]
  GI50: > 100 µM (inactive)
[37]
  GI50: > 100 µM (inactive)
[38]
  GI50: > 100 µM (inactive)
[39]
  GI50: > 100 µM (inactive)
[40]
  GI50: > 100 µM (inactive)
[41]
  GI50: > 100 µM (inactive)
[42]
  GI50: 59 µM (inactive)
[43]
  GI50: > 100 µM (inactive)
[44]
  GI50: > 100 µM (inactive)
[56]
  GI50: > 100 µM (inactive)
[45]
  GI50: > 100 µM (inactive)
[46]
  GI50: > 100 µM (inactive)
[47]
  GI50: > 100 µM (inactive)
[48]
  GI50: > 100 µM (inactive)
[49]
  GI50: > 100 µM (inactive)
[57]
  GI50: > 100 µM (inactive)
[50]
  GI50: > 100 µM (inactive)
[51]
  GI50: > 100 µM (inactive)
[52]
  GI50: > 100 µM (inactive)
[53]
  GI50: > 100 µM (inactive)
[54]
  GI50: > 100 µM
